Measured values: patent US10172581B2, “Methods of assessing tumor growth” (Dana-Farber Cancer Institute, Inc., priority 2013, dated 2019)
Like-named read-outs stand apart in the source and are kept apart here.

Assays:
[1] = test system: stage IV lung adenocarcinoma; assay: CT follow-up of a lung adenocarcinoma patient on crizotinib (FIG. 4); type: in vivo, human; settings: person, 8 weeks
[2] = test system: NSCLC with sensitizing EGFR mutations (dominant measurable lung lesion); settings: for tumor volume: same patient
Method: Patients provided informed consent and their records were retrospectively reviewed with IRB approval.
Baseline and follow-up CT scans were performed to determine response to EGFR-TKI using the clinical chest CT protocol [31]. Follow-up CT scans were performed every 8 weeks for 33 patients enrolled in prospective trials of EGFR-TKI, and at the discretion of the treating providers for 25 patients treated off protocol [5,25,45-47]. […] The nadir (the smallest tumor volume recorded from baseline to TKI termination/last follow-up) was determined for each patient.
1, 2012, were analyzed. Demographics and disease characteristics were summarized with descriptive statistics. A linear mixed effects model, fitting time as a random effect [48], was fitted to the repeated measures of volume data to estimate the effect of time and other prognostic factors on tumor growth. The tumor volume (mm^3) was transformed to the natural logarithm scale, and the logarithm of tumor volume (logeV) was used. The first model was built adjusting only for time in months from baseline. Since the baseline volume (logeV0; the tumor volume measured on the baseline scan performed before the initiation of TKI therapy) may influence the tumor volume and its growth rate, the second model was adjusted for time and logeV0.

SMILES | change of lung lesion on CT [1] | tumor volume at nadir ([2]; person, stage IV lung adenocarcinoma, 4 month of therapy, baseline 25,016 mm^3) | tumor volume ([2]; 5 month, regrowth after nadir) | tumor volume ([2]; 7 month)
C[C@@H](Oc1cc(-c2cnn(C3CCNCC3)c2)cnc1N)c1c(Cl)ccc(F)c1Cl [crizotinib] | marked decrease of the lesion and nodular pericardial thickening | – | – | –
C#Cc1cccc(Nc2ncnc3cc(OCCOC)c(OCCOC)cc23)c1 [erlotinib] | – | 5,288 mm^3 | 7,490 mm^3 | 12,922 mm^3
